Laboratory results taken from patent US7829063B2, “Development of molecular imaging probes for carbonic anhydrase-IX using click chemistry” (Siemens Medical Solutions USA, Inc., priority 2007, dated 2010).

How the values were obtained:
CA-IX [1] = target: T1, CA-IX (Homo sapiens, UniProt Q16790); assay: Binding affinity (Kd) determination for CA-IX inhibitors, DNSA fluorescence competition assay, Scatchard plots; settings: Table 3
T1 construct: His tag (C); purchased R&D Systems Inc. 2188-CA; host or cells: mouse myeloma cell line NS0
Protocol: General. […] The human red blood cells were obtained from Research Blood Components, LLC. All absorbance measurements were performed on a SPECTRA MAX M2 plate reader at 25° C. The LC/MS analyses were performed on an Agilent 1100 series LC/MSD (SL) using a 30×2.1 mm Zorbax C8 column with a Phenomenex C18 pre-column. Compound detection was accomplished by electrospray mass spectroscopy in positive selected ion mode (LC/MS-SIM). The elution solvents were acetonitrile and water, contained 0.05% TFA. Nuclear magnetic resonance (NMR) spectra were obtained on a Bruker AMX 300 MHz spectrometer or a Varian 400. 19F NMR spectra were recorded on a Bruker AMX 282.35 MHz or a Varian 400 spectrometer. The mass spectra were recorded on an Agilent 1100 series LC/MSD with electrospray mass spectroscopic detection. Flash column chromatography was performed on Merck silica gel (40-63 μm) using the solvent system indicated. The radiochemical and chemical purities were analyzed by RP-HPLC.
General Procedure of Binding Affinity (Ka) Determination for CA-IX Inhibitors
The assay was based on the observation that the only fluorescence signal detected at 460 nm upon excitation at 290 nm, an absorption […] for DNSA, was that of the DNSA.CA complex. […] The latter were developed for each test compound using mass balance for calculating the concentration of CA bound to DNSA [DNSA.CA], bound to the non-fluorescent sample [CA.Inh] and free CA [CA] in solution. The Kd values were determined from Scatchard plots using the equation below as described by Whitesides et al. [CA.Inh]/[CA]tot.[Inh]=K11^inh−K11^inh{[CA.Inh]+[CA.DNSA]}/([CA]tot)
The terms [CA.DNSA], [CA.Inh], and free CA were calculated using the mass balance based on the known values for the dissociation constant of CA.DNSA and the total concentration of CA in each reaction.

CA-IX [2] = target: T1, CA-IX; assay: CA-IX combinatorial library screening, competitive fluorescence-based assay with dansylamide (DNSA); type: binding; settings: Table 1, Libraries 1-3; sample concentrations 100 nM and 1000 nM, DNSA 200 μM; screening at 1 μM
Method in brief: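 Recombinant His-tagged CA-IX (NS0-expressed) in phosphate buffer pH 7.4 with test compound at 100 nM or 1000 nM; competitive displacement started with 200 μM dansylamide (stock concentration). After 1 h at 25 °C, fluorescence read at 460 nm (excitation 290 nm).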

| Compound | Kd (CA-IX [1]) [nM] | In Vitro Binding Assay (Library Screening) (CA-IX [2]) |
| --- | --- | --- |
| Cc1ccc(CNC(=O)[C@H](C(C)C)n2cc(COc3ccc4nc(S(N)(=O)=O)sc4c3)nn2)cc1F [DHK123] | 12.5 | √ |
| NS(=O)(=O)c1ccc(-c2cn(Cn3nnc4ccccc43)nn2)cc1 [DHK29] | 20 | √ |
| CC(C)[C@@H](C(=O)NCc1ccco1)n1cc(COc2ccc3nc(S(N)(=O)=O)sc3c2)nn1 [DHK127] | 25 | √ |
| NS(=O)(=O)c1nc2ccc(OCc3cn(Cc4cccc(Br)c4)nn3)cc2s1 [DHK121] | 25 | √ |
| Cc1ccnc(NC(=O)[C@H](Cc2ccccc2)n2cc(-c3ccc(S(N)(=O)=O)cc3)nn2)c1 [DHK7] | 17 | √ |
| CC(C)C(C(=O)NCc1cc(F)ccc1F)n1cc(COc2ccc3nc(S(N)(=O)=O)sc3c2)nn1 (stereo not drawn) [DHK117] | 14.1 | √ |
| CC(C)[C@H](C(=O)NCc1ccco1)n1cc(-c2ccc(S(N)(=O)=O)cc2)nn1 (stereo in doubt) [DHK25] | 5 | √ √ |
| COC(=O)[C@H](CSCc1ccccc1)NC(=O)Cn1cc(COc2ccc3nc(S(N)(=O)=O)sc3c2)nn1 [DHK113] | 10 | √ √ |
| NS(=O)(=O)c1ccc(-c2cn(Cn3c(=S)sc4ccccc43)nn2)cc1 [DHK19] | 14 | √ |
| CCOC(=O)c1ccc(Cn2cc(COc3ccc4nc(S(N)(=O)=O)sc4c3)nn2)cc1 [DHK125] | 16.7 | √ |
| NS(=O)(=O)c1nc2ccc(OCc3cn(Cn4nnc5ccccc54)nn3)cc2s1 [DHK128] | 12.5 | √ |
| CCOC(=O)C1CCN(C(=O)[C@H](Cc2ccc(OCCF)cc2)n2cc(COc3ccc4nc(S(N)(=O)=O)sc4c3)nn2)CC1 [DHK2-118] | 5 |  |
| CC(C)[C@@H](C(=O)N[C@@H](Cc1ccc(OCCF)cc1)C(=O)O)n1cc(COc2ccc3nc(S(N)(=O)=O)sc3c2)nn1 [VM4037a, (S)-3-(4-(2-fluoroethoxy)phenyl)-2-((S)-3-methyl-2-(4-((2-sulfamoylbenzo[d]thiazol-6-yloxy)methyl)-1H-1,2,3-triazol-1-yl)butanamido) propanoic acid] | 1.3 |  |
| NS(=O)(=O)c1nc2ccc(OCc3cn([C@@H](Cc4ccccc4)C(=O)NCC4COc5ccccc5O4)nn3)cc2s1 (stereo partly drawn) [DHK2-71] | 2.5 |  |
| NS(=O)(=O)c1nc2ccc(OCc3cn([C@@H](Cc4ccc(OCC(O)CF)cc4)C(=O)N[C@@H](Cc4ccc(C(F)(F)F)cc4)C(=O)O)nn3)cc2s1 (stereo partly drawn) [DHK2-173, (2S)-2-((2S)-3-(4-(3-fluoro-2-hydroxypropoxy)phenyl)-2-(4-((2-sulfamoylbenzo[d]thiazol-6-yloxy)methyl)-1H-1,2,3-triazol-1-yl)propanamido)-3-(4-(trifluoromethyl)phenyl)propanoic acid] | 2 |  |
| CC(C)[C@@H](C(=O)N[C@@H](Cc1ccc(OCCO)cc1)C(=O)O)n1cc(COc2ccc3nc(S(N)(=O)=O)sc3c2)nn1 [VM4021, (S)-3-(4-(2-hydroxyethoxy)phenyl)-2-((S)-3-methyl-2-(4-((2-sulfamoylbenzo[d]thiazol-6-yloxy)methyl)-1H-1,2,3-triazol-1-yl)butanamido)propanoic acid] | 3.3 |  |
